Source: patent publication EP2987533B1, “7-substituted piperazin-1-yl fluoroquinolone compounds, their use in the treatment of cancer, pharmaceutical compositions and a method for preparation” (priority 2014, dated 2016)

What was measured:
SK-MEL-2 [1] = test: NCI five-dose SRB growth assay; assay type: cell-based; settings: Homo sapiens; SK-MEL-2 (Melanoma), 48 h
HL-60(TB) = test: NCI five-dose SRB growth assay; assay type: cell-based; settings: Homo sapiens; HL-60(TB) (Leukemia), 48 h
786-0 [2] = test: NCI five-dose SRB growth assay; assay type: cell-based; settings: Homo sapiens; 786-0 (Renal Cancer), 48 h
SN12C = test: NCI five-dose SRB growth assay; assay type: cell-based; settings: Homo sapiens; SN12C (Renal Cancer), 48 h
ACHN = test: NCI five-dose SRB growth assay; assay type: cell-based; settings: Homo sapiens; ACHN (Renal Cancer), 48 h
breast cancer = test: NCI five-dose SRB assay, subpanel average; settings: 48 h; for GI50 / CC50: Homo sapiens; for GI50: read-out: GI50 (median growth inhibitory); for CC50: read-out: LC50 (median lethal); for TGI (total growth inhibitory): average over breast cancer subpanel, five concentrations
M14 = test: NCI five-dose SRB growth assay; assay type: cell-based; settings: Homo sapiens; M14 (Melanoma), 48 h
HCT-15 = test: NCI five-dose SRB growth assay; assay type: cell-based; settings: Homo sapiens; HCT-15 (Colon Cancer), 48 h
BT-549 = test: NCI five-dose SRB growth assay; assay type: cell-based; settings: Homo sapiens; BT-549 (Breast Cancer), 48 h
SNB-19 = test: NCI five-dose SRB growth assay; assay type: cell-based; settings: Homo sapiens; SNB-19 (CNS Cancer), 48 h
MCF7 = test: NCI one-dose SRB growth assay; assay type: cell-based; settings: Homo sapiens; MCF7 (Breast Cancer), 10^-5 M, 48 h; read-out: % Growth Inhibition (GI %)
Outline: (§1)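 Read-out: sulforhodamine B protein-binding dye, measured spectrophotometrically, expressed as percent growth of treated versus untreated cells. Cultures received test compound at 10^-5M and were incubated 48 h.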

PC-3 = test: NCI one-dose SRB growth assay; assay type: cell-based; settings: Homo sapiens; PC-3 (Prostate Cancer), 10^-5 M, 48 h; read-out: % Growth Inhibition (GI %)
Outline: (§2)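 Growth percentage versus untreated controls was derived from SRB protein-dye absorbance after cells were incubated 48 h with test compound at a single 10^-5M dose.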

SK-MEL-2 [3] = test: NCI one-dose SRB growth assay; assay type: cell-based; settings: Homo sapiens; SK-MEL-2 (Melanoma), 10^-5 M, 48 h; read-out: % Growth Inhibition (GI %)
SF-539 = test: NCI one-dose SRB growth assay; assay type: cell-based; settings: Homo sapiens; SF-539 (CNS Cancer), 10^-5 M, 48 h; read-out: % Growth Inhibition (GI %)
Outline: as §1

CAKI-1 = test: NCI one-dose SRB growth assay; assay type: cell-based; settings: Homo sapiens; CAKI-1 (Renal Cancer), 10^-5 M, 48 h; read-out: % Growth Inhibition (GI %)
Outline: as §1

RXF 393 = test: NCI one-dose SRB growth assay; assay type: cell-based; settings: Homo sapiens; RXF 393 (Renal Cancer), 10^-5 M, 48 h; read-out: % Growth Inhibition (GI %)
Outline: as §1

786-0 [4] = test: NCI one-dose SRB growth assay; assay type: cell-based; settings: Homo sapiens; 786-0 (Renal Cancer), 10^-5 M, 48 h; read-out: % Growth Inhibition (GI %)
Outline: as §1

HOP-92 = test: NCI one-dose SRB growth assay; assay type: cell-based; settings: Homo sapiens; HOP-92 (Non-Small Cell Lung Cancer), 10^-5 M, 48 h; read-out: % Growth Inhibition (GI %)
Outline: as §1

MDA-MB-435 = test: NCI one-dose SRB growth assay; assay type: cell-based; settings: Homo sapiens; MDA-MB-435 (Melanoma), 10^-5 M, 48 h; read-out: % Growth Inhibition (GI %)
Outline: as §1

OVCAR-5 = test: NCI one-dose SRB growth assay; assay type: cell-based; settings: Homo sapiens; OVCAR-5 (Ovarian Cancer), 10^-5 M, 48 h; read-out: % Growth Inhibition (GI %)
Outline: as §1

PRMI-8226 = test: NCI one-dose SRB growth assay; assay type: cell-based; settings: Homo sapiens; PRMI-8226 (Leukemia), 10^-5 M, 48 h; read-out: % Growth Inhibition (GI %)
Outline: as §2

NCI-H23 = test: NCI one-dose SRB growth assay; assay type: cell-based; settings: Homo sapiens; NCI-H23 (Non-Small Cell Lung Cancer), 10^-5 M, 48 h; read-out: % Growth Inhibition (GI %)
Outline: as §1

IGROV1 = test: NCI one-dose SRB growth assay; assay type: cell-based; settings: Homo sapiens, IGROV-1; IGROV1 (Ovarian Cancer), 10^-5 M, 48 h; read-out: % Growth Inhibition (GI %)
T-47D = test: NCI one-dose SRB growth assay; assay type: cell-based; settings: Homo sapiens, T47D; T-47D (Breast Cancer), 10^-5 M, 48 h; read-out: % Growth Inhibition (GI %)
Outline: as §1

TK-10 = test: NCI five-dose SRB growth assay; assay type: cell-based; settings: Homo sapiens; TK-10 (Renal Cancer), 48 h
SK-OV-3 = test: NCI five-dose SRB growth assay; assay type: cell-based; settings: Homo sapiens; SK-OV-3 (Ovarian Cancer), 48 h
prostate cancer = test: NCI five-dose SRB assay, subpanel average; settings: 48 h; for GI50 / CC50: Homo sapiens; for GI50: read-out: GI50 (median growth inhibitory); for CC50: read-out: LC50 (median lethal); for TGI (total growth inhibitory): average over prostate cancer subpanel, five concentrations
A498 = test: NCI five-dose SRB growth assay; assay type: cell-based; settings: Homo sapiens; A498 (Renal Cancer), 48 h
HOP-62 = test: NCI one-dose SRB growth assay; assay type: cell-based; settings: Homo sapiens; HOP-62 (Non-Small Cell Lung Cancer), 10^-5 M, 48 h; read-out: % Growth Inhibition (GI %)
Outline: as §1

| SMILES | GI50 (SK-MEL-2 [1]) [µM] | GI50 (HL-60(TB)) [µM] | GI50 (786-0 [2]) [µM] | GI50 (SN12C) [µM] | GI50 (ACHN) [µM] | GI50 (breast cancer) [µM] | inhibition at 10 µM (MCF7) [%] | inhibition at 10 µM (PC-3) [%] | inhibition at 10 µM (SK-MEL-2 [3]) [%] | inhibition at 10 µM (SF-539) [%] | inhibition at 10 µM (CAKI-1) [%] | inhibition at 10 µM (RXF 393) [%] | inhibition at 10 µM (786-0 [4]) [%] | inhibition at 10 µM (HOP-92) [%] | inhibition at 10 µM (MDA-MB-435) [%] | inhibition at 10 µM (OVCAR-5) [%] | inhibition at 10 µM (PRMI-8226) [%] | inhibition at 10 µM (NCI-H23) [%] | inhibition at 10 µM (IGROV1) [%] | inhibition at 10 µM (T-47D) [%] | also measured |
| --- | --- | --- | --- | --- | --- | --- | --- | --- | --- | --- | --- | --- | --- | --- | --- | --- | --- | --- | --- | --- | --- |
| CCn1cc(C(=O)O)c(=O)c2cc(F)c(N3CCN(S(=O)(=O)c4ccc(Cl)cc4)CC3)cc21 [Compound 1a] | 2.57 | 2.18 | 3.77 | 2.92 | 3.09 | 2.95 | 85.7 | 74.7 | 56.2 | 78.3 | 56.4 | 86.6 | 76.3 | > 100 | 74.9 | 48.1 | 86.6 | > 100 | 90.6 | 58.9 | CC50 (breast cancer): > 100 µM; TGI (total growth inhibitory) (breast cancer): 54.63 µM; GI50 (M14): 2.85 µM; GI50 (HCT-15): 3.62 µM; GI50 (BT-549): 2.44 µM; GI50 (SNB-19): 3.97 µM; GI50 (TK-10): 3.73 µM; GI50 (SK-OV-3): 3.28 µM; GI50 (prostate cancer): 3.21 µM; CC50 (prostate cancer): > 100 µM; TGI (total growth inhibitory) (prostate cancer): 54.11 µM; GI50 (A498): 1.81 µM |
| CCn1cc(C(=O)O)c(=O)c2cc(F)c(N3CCN(S(=O)(=O)c4ccc(Cl)cc4Cl)CC3)cc21 [Compound 2a] | 2.75 | 2.22 | 3.19 | 2.77 | 2.62 | 2.51 | 10.8 | 98.4 | > 100 | 91.4 | 95.2 | 72.1 | 81.3 | > 100 | 87.2 | 92.1 | 90.9 | > 100 | 92.5 | 98.3 | CC50 (breast cancer): 88.1 µM; TGI (total growth inhibitory) (breast cancer): 8.44 µM; GI50 (M14): 3.24 µM; GI50 (HCT-15): 2.82 µM; GI50 (BT-549): 2.64 µM; GI50 (SNB-19): 3.07 µM; inhibition at 10 µM (HOP-62): 80.5%; GI50 (TK-10): 4.02 µM; GI50 (SK-OV-3): 3 µM; GI50 (prostate cancer): 2.62 µM; CC50 (prostate cancer): > 100 µM; TGI (total growth inhibitory) (prostate cancer): 8.72 µM; GI50 (A498): 2.99 µM |
| O=C(O)c1cn(C2CC2)c2cc(N3CCN(S(=O)(=O)c4ccc(Cl)cc4Cl)CC3)c(F)cc2c1=O [Compound 2b] | – | – | – | – | – | – | 82.4 | 18.9 | < 10 | < 10 | 12.1 | 67.7 | < 10 | < 10 | < 10 | < 10 | 21.3 | 16.8 | < 10 | 26.4 | inhibition at 10 µM (HOP-62): 11.8% |
